From the RepoRT retention time repository come the findings set out here.

A short description of the series: A: acetonitrile + 0.1% formic acid + 10 mM ammonium formate; B: 5% water + 95% acetonitrile + 0.1% formic acid + 10 mM ammonium formate; gradient (min/%B) 0/10 2/10 22/100 27/100 27.1/10. To be noted: stereoisomer not certain.

Turning to `O=C(O)Cc1ccccc1Nc1c(Cl)cccc1Cl` [Diclofenac acid], the LC retention time came to 0.456 min.

Consider `Cc1ncc(CO)c(C=O)c1O` [Pyridoxal], for which the LC retention time was determined as 0.981 min. Take `O=C(C=CC=Cc1ccc2c(c1)OCO2)N1CCCCC1` [Piperine]: the LC retention time is 0.44 min.

With `O=C(CO)[C@@H](O)[C@H](O)[C@H](O)COP(=O)(O)O` [D-Fructose-6-phosphate], the LC retention time amounted to 7.36 min. Consider `C[n+]1cccc(C(=N)[O-])c1` [1-Methylnicotinamide], for which the LC retention time came out at 4.68 min. In the case of `Nc1nc2c(ncn2C2OC(COP(=O)(O)OP(=O)(O)O)C(O)C2O)c(=O)[nH]1` (stereo unspecified) [Guanosine 5'-diphosphate] it was 9.21 min; in that of `CCCc1nc(C)c2c(=O)[nH]c(-c3cc(S(=O)(=O)N4CCN(CC)CC4)ccc3OCC)nn12` [Vardenafil], 1.08 min; in that of `NCC(=O)CCC(=O)O` [5-Aminolevulinic acid], 5.89 min. In the case of `NCCc1cnc[nH]1` [Histamine] it was 7.92 min; in that of `C=C1CCC2CC1C2(C)C` (stereo not drawn) [beta-Pinene], 0.452 min.

As for `Nc1ncnc2c1ncn2C1CC(O)C(CO)O1` (stereo unspecified) [2'-Deoxyadenosine], the LC retention time is 1.39 min. In the case of `CC12C=CC(=O)C=C1CCC1C2C(O)CC2(C)C1CCC2(O)C(=O)CO` (stereo unspecified) [Hydroretrocortine] it was 0.485 min. In the case of `CN[C@@H](CCC(=O)O)C(=O)O` [N-Methyl-L-glutamic acid] it was 6.54 min. The figure for `Nc1nc2nc[nH]c2c(=O)[nH]1` [Guanine] is 3.98 min. `c1coc(Cn2cccc2)c1` [1-Furfurylpyrrole]: the LC retention time came to 0.425 min. In the case of `CN1C(=O)CCC1c1cccnc1` [(S)-Cotinine] it was 0.622 min. In the case of `NC(N)=NC(=O)c1nc(Cl)c(N)nc1N` [Amiloride] it was 2.91 min; in that of `O=C(O)C=Cc1cnc[nH]1` [Urocanic acid], 1.89 min.

Consider `CN(C)CCCC1(c2ccc(F)cc2)OCc2cc(C#N)ccc21` (stereo unspecified) [Citalopram], for which the LC retention time is 0.991 min.

As for `NCCCCN=C(N)N` [Agmatine], the LC retention time worked out at 6.99 min. Turning to `NC(=O)C1=CN(C2OC(COP(=O)(O)OP(=O)(O)OCC3OC(n4cnc5c(N)ncnc54)C(O)C3O)C(O)C2O)C=CC1` (stereo unspecified) [NADH], the LC retention time came to 7.5 min. Consider `N[C@@H](Cc1cnc[nH]1)C(=O)O` [L-Histidine], for which the LC retention time was determined as 7.73 min. In the case of `CC(=O)N1CCC[C@H]1C(=O)O` [N-Acetyl-L-Proline], the LC retention time worked out at 4.98 min. In the case of `NC(=O)NC(NC(N)=O)C(=O)O` [Allantoic acid] it was 6.54 min; in that of `NC(CCC(=O)NC(CS)C(=O)NCC(=O)O)C(=O)O` [L-Glutathione reduced], 7.03 min; in that of `C=C1CCC(O)CC1=CC=C1CCCC2(C)C1CCC2C(C)CCCC(C)C` (stereo unspecified) [Vitamin D3], 0.407 min. In the case of `COC(=O)C1C2CC3c4[nH]c5cc(OC)ccc5c4CCN3CC2CC(OC(=O)c2cc(OC)c(OC)c(OC)c2)C1OC` (stereo unspecified) [Reserpine] it was 0.769 min; in that of `N[C@@H](CO)C(=O)O` [L-Serine], 6.56 min.

As for `CC(CCC(=O)NCC(=O)O)C1CCC2C3C(O)CC4CC(O)CCC4(C)C3CC(O)C12C` (stereo unspecified) [Glycocholic acid], the LC retention time amounted to 4.17 min. In the case of `O=C(O)CN(CCN(CC(=O)O)CC(=O)O)CC(=O)O` [Ethylenediaminetetraacetic acid] it was 6.91 min; in that of `CN(C)Cc1c[nH]c2ccccc12` [Gramine], 1.61 min. In the case of `CCCC[C@H](N)C(=O)O` [L-Norleucine] it was 4.99 min. In the case of `Cc1cnc(=O)[nH]c1N` [5-Methylcytosine] it was 3.15 min. Turning to `Cc1cnc(NC(=O)C2=C(O)c3ccccc3S(=O)(=O)N2C)s1` [Meloxicam], the LC retention time was determined as 0.416 min. In the case of `CCC1=C(C)CN(C(=O)NCCc2ccc(S(=O)(=O)NC(=O)NC3CCC(C)CC3)cc2)C1=O` (stereo unspecified) [Glimepiride] it was 0.44 min; in that of `Cc1noc(NS(=O)(=O)c2ccc(N)cc2)c1C` [Sulfisoxazole], 0.449 min. In the case of `C=CC1CN2CCC1CC2C(O)c1ccnc2ccccc12` (stereo unspecified) [Cinchonidine] it was 2.2 min.

On to `Nc1nc2c(ncn2COC(CO)CO)c(=O)[nH]1` [Ganciclovir], for which the LC retention time was determined as 4.73 min. The figure for `CC(C)(C)NCC(O)c1ccc(O)c(CO)c1` (stereo unspecified) [Salbutamol] is 3.16 min; for `CN(CC(=O)O)C(N)=NP(=O)(O)O` [Creatine phosphate] it is 7.86 min; for `NC[C@@H](O)CC(=O)O` [(S)-(+)-4-Amino-3-hydroxybutyric acid] it is 6.5 min. The figure for `CC(=O)N[C@@H](Cc1ccc(O)cc1)C(=O)O` [N-Acetyl-L-tyrosine] is 2.85 min; for `CC(=O)C1CCC2C3CCC4=CC(=O)CCC4(C)C3CCC12C` (stereo unspecified) [Progesterone] it is 0.425 min. The figure for `NC(=O)c1ncn(C2OC(CO)C(O)C2O)n1` (stereo unspecified) [Ribavirin] is 3.11 min; for `O=c1ccc2ccccc2o1` [Coumarin] it is 0.431 min. As for `CC(C)[C@H](N)C(=O)O` [L-Valine], the LC retention time is 5.92 min. In the case of `Nc1ccnc(=O)[nH]1` [Cytosine] it was 3.35 min. The figure for `O=c1ccn(C2OC(COP(=O)(O)OP(=O)(O)O)C(O)C2O)c(=O)[nH]1` (stereo unspecified) [Uridine 5'-diphosphate] is 8.14 min; for `CC(=O)NC(CCC(=O)O)C(=O)O` (stereo unspecified) [N-Acetylglutamic acid] it is 5.85 min; for `Nc1ccn(C2OC(CO)C(O)C2O)c(=O)n1` (stereo unspecified) [Cytidine] it is 4.73 min. As to `NC(=O)CCC(NC(=O)Cc1ccccc1)C(=O)O` (stereo unspecified) [Phenyl-Ac-Gln-OH], the LC retention time is 3.83 min. The figure for `COC(=O)C1=C(C)NC(C)=C(C(=O)OCCN(C)Cc2ccccc2)C1c1cccc([N+](=O)[O-])c1` (stereo unspecified) [Nicardipine] is 0.714 min. The figure for `O=c1cc(-c2ccc(O)c(O)c2)oc2cc(O)cc(O)c12` [Luteolin] is 0.593 min. For `O=C(O)C(=O)Cc1c[nH]c2ccccc12` [Indole-3-pyruvic acid], the LC retention time came to 0.455 min. Consider `NCC(CC(=O)O)c1ccc(Cl)cc1` (stereo unspecified) [Baclofen], for which the LC retention time came out at 4.14 min. Take `OCC(O)C(O)C(OC1OC(CO)C(O)C(O)C1O)C(O)CO` (stereo unspecified) [Maltitol]: the LC retention time worked out at 6.59 min. The figure for `CN(C)CCC=C1c2ccccc2COc2ccccc21` [Doxepin] is 1.04 min; for `CS(=N)(=O)CC[C@H](N)C(=O)O` (stereo partly drawn) [(2S)-2-Amino-4-(S-methylsulfonimidoyl)butanoic acid] it is 6.69 min; for `O=c1cc(-c2ccccc2)oc2ccccc12` [Flavone] it is 0.425 min. The figure for `N[C@@H](Cc1c[nH]c2ccc(O)cc12)C(=O)O` [L-5-Hydroxytryptophan] is 5.36 min. In the case of `c1ncc2[nH]cnc2n1` [Purine] it was 1.01 min. With `CC(=O)N[C@@H](CCCN)C(=O)O` [N-Acetyl-L-ornithine], the LC retention time came out at 6.58 min. In the case of `CC(=O)c1cnccn1` [2-Acetylpyrazine] it was 0.441 min. In the case of `NC(=O)NC(CC(=O)O)C(=O)O` (stereo unspecified) [Ureidosuccinic acid] it was 5.96 min. In the case of `CC=C(C)C(=O)NCC(=O)O` [N-Tiglylglycine], the LC retention time came to 1.97 min.

As to `COc1ccc2[nH]cc(CCN)c2c1` [5-Methoxytryptamine], the LC retention time was 2.21 min.

Take `CC(C)NCC(O)COc1cccc2ccccc12` (racemic) [(+/-)-Propranolol]: the LC retention time amounted to 1.21 min. The figure for `N#CC(OC1OC(COC2OC(CO)C(O)C(O)C2O)C(O)C(O)C1O)c1ccccc1` (stereo unspecified) [Amygdalin] is 4.24 min; for `Cc1cc2nc3c(=O)[nH]c(=O)nc-3n(CC(O)C(O)C(O)COP(=O)(O)OP(=O)(O)OCC3OC(n4cnc5c(N)ncnc54)C(O)C3O)c2cc1C` (stereo unspecified) [Flavin Adenine Dinucleotide] it is 7.38 min.

For the molecule `O=C(O)CNC(=O)c1ccccc1` [Hippuric acid], the LC retention time was 1.59 min. In the case of `O=C1OC2(c3ccccc31)c1cc(I)c(O)c(I)c1Oc1c2cc(I)c(O)c1I` [Erythrosine B] it was 0.57 min; in that of `Cc1ncc(C[n+]2csc(CCOP(=O)([O-])O)c2C)c(N)n1` [Thiamine monophosphate], 8.44 min; in that of `N[C@@H](Cc1ccc(O)c([N+](=O)[O-])c1)C(=O)O` [3-Nitro-L- tyrosine], 4.76 min. In the case of `Cc1ccc(C(C)C)cc2c(C)ccc1-2` [Guaiazulene] it was 0.402 min; in that of `CNC(CC(C)C)C(=O)NC1C(=O)NC(CC(N)=O)C(=O)NC2C(=O)NC3C(=O)NC(C(=O)NC(C(=O)O)c4cc(O)cc(O)c4-c4cc3ccc4O)C(O)c3ccc(c(Cl)c3)Oc3cc2cc(c3OC2OC(CO)C(O)C(O)C2OC2CC(C)(N)C(O)C(C)O2)Oc2ccc(cc2Cl)C1O` (stereo unspecified) [Vancomycin], 8.2 min; in that of `O=c1[nH]c(=O)c2[nH]cnc2[nH]1` [Xanthine], 2.92 min.

In the case of `Cc1c[nH]c2ccccc12` [3-Methylindole], the LC retention time stood at 0.412 min. In the case of `CC(CN)C(=O)O` (stereo unspecified) [3-Aminoisobutanoic acid] it was 5.88 min. The figure for `Nc1nc2c(ncn2C2OC(CO)C(O)C2O)c(=O)[nH]1` (stereo unspecified) [Guanosine] is 4.96 min. In the case of `CC(C)[C@H](NC(=O)CN)C(=O)O` [Glycyl-L-valine] it was 6.02 min; in that of `CN(C)CCCN1c2ccccc2CCc2ccc(Cl)cc21` [Clomipramine], 0.942 min.
